Numbered stars: 1 amine (or outer) side, 2 acyl side, 3 side chain; on linkers, the order of the positions; unused ones are H or OH. Bridge positions count the residues as written; N and C are the ends. Square brackets hold non-standard residues; d marks the D form. Peptide text beside a SMILES is read from it. ξ: configuration not given here. X2 = O=C(C[C@@H](Cc1ccc(-c2ccccc2)cc1)C(=O)[*:2])[C@@H]1CCCN1[*:1]; Phe(4-COOH) = N[C@@H](Cc1ccc(C(=O)O)cc1)C(=O)O; Bip = N[C@@H](Cc1ccc(-c2ccccc2)cc1)C(=O)O; Nle(6-COOH) = N[C@@H](CCCCC(=O)O)C(=O)O; X1 = N=C(CN)NCCC[C@H](N[*:1])C(=O)[*:2]; Ala(4-THP) = N[C@@H](CC1CCOCC1)C(=O)O; ξE = NC(CCC(=O)O)C(=O)O; βAla = NCCC(=O)O
Assays:
Assay type in all cases: cell-based
BMP5 = molecular target: T1, BMP5 (Homo sapiens, UniProt P22003); test: BMP family signal transduction inhibition (SMAD1 phosphorylation), BMP5 stimulus
T1 sequence (P22003 317-454): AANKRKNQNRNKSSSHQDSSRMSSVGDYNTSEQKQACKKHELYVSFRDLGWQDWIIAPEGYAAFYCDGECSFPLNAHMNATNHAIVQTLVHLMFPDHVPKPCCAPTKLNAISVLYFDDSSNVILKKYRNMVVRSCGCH
Text: (§1) In the present Example, BMP4 signal transduction inhibition peptide No. 177, peptide No. 29986 (SEQ ID NO: 277 (Example 8)), and peptide SEQ ID NO: 417 (Example 6) synthesized in Example 2, Example 8, and Example 6 were verified in the same manner as in Example 13 in order to confirm presence or absence of signal transduction inhibitory activities obtained by BMPs 2, 5, 6, 9, 12, and 14 belonging to the respective BMP families.
(§2) Regarding the concentrations of the respective BMPs in the evaluation, 0.3 nM of BMP2, 2 nM of BMP5, 3 nM of BMP6, 10 nM of BMP9 and BMP12, and 0.6 nM of BMP14 were added, followed by application of stimulus.
(§3) Regarding No. 177, the concentrations of the peptides were as follows. Specifically, eight concentrations of the peptides were used at a common ratio of 1/3 starting from 10 nM (BMP2), starting from 200 nM (BMP5), starting from 100 nM (BMP6), starting from 1,000 nM (BMP9 and BMP12), and starting from 60 nM (BMP14). The evaluation was performed in the same manner as in Example 11 except for the above points. Note that recombinant Human Noggin Protein (R&D) as a positive control was used at the same concentration as the peptide.
(§4) Regarding the peptide SEQ ID NO: 277 (Example 8), the concentrations of the peptides were as follows. […]

BMP6 = molecular target: T2, BMP6 (Homo sapiens, UniProt P22004); test: BMP family signal transduction inhibition (SMAD1 phosphorylation), BMP6 stimulus
T2 sequence (P22004 375-513): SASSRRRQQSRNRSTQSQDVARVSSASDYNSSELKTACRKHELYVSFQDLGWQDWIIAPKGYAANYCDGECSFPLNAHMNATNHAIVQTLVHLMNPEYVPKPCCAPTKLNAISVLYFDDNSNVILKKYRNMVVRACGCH
Text: as §1, §2, §3, §4

BMP2 = molecular target: T3, BMP2 (Homo sapiens, UniProt P12643); test: BMP family signal transduction inhibition (SMAD1 phosphorylation), BMP2 stimulus
T3 sequence (P12643 283-396): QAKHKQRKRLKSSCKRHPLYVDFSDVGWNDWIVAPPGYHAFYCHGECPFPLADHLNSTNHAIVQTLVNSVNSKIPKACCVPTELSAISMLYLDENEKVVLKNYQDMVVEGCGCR
Text: as §1, §2, §3, §4

CC(C)[C@@H]1NC(=O)[C@H](CCCNC(=N)N)NC(=O)[C@H](CCCCC(=O)O)NC(=O)CSC[C@@H](C(=O)NCCC(=O)NC(CCC(=O)O)C(=O)O)NC(=O)[C@H](CO)NC(=O)[C@H](Cc2ccc(C(=O)O)cc2)NC(=O)[C@H](Cc2ccc(C(=O)O)cc2)NC(=O)[C@H](Cc2ccc(O)cc2)NC(=O)[C@H](Cc2ccc(-c3ccccc3)cc2)CC(=O)[C@@H]2CCCN2C(=O)[C@H](Cc2ccc(O)cc2)NC(=O)[C@@H]2CCCN2C(=O)[C@H](Cc2ccc(-c3ccccc3)cc2)NC(=O)[C@H](CCCNC(=N)CN)NC(=O)[C@H](CC(=O)O)NC(=O)[C@H](CC2CCOCC2)NC(=O)[C@H](Cc2ccc(C(=O)O)cc2)NC1=O (stereo partly drawn) [SEQ ID No. 177] ({CH2CO}-[Nle(6-COOH)]RV[Phe(4-COOH)][Ala(4-THP)]D[X1][Bip]PY[X2]Y[Phe(4-COOH)][Phe(4-COOH)]SC[βAla][ξE]-OH; thioether N-16)
BMP5 signal transduction inhibitory activity (in words) (BMP5): signal transduction inhibitory activities of BMP2, BMP5, and BMP6
BMP6 signal transduction inhibitory activity (in words) (BMP6): signal transduction inhibitory activities of BMP2, BMP5, and BMP6
BMP2 signal transduction inhibitory activity (in words) (BMP2): signal transduction inhibitory activities of BMP2, BMP5, and BMP6

Source: patent publication US20250361274A1, “PEPTIDE AND PEPTIDE-CONTAINING AGENT” (PEPTIDREAM INC., priority 2022, published 2025)
